Target: T1, IRAK4 (Homo sapiens, UniProt Q9NWZ3)
T1 construct: endogenous in cells; host or cells: THP-1 cells
T1 sequence (Q9NWZ3 1-460): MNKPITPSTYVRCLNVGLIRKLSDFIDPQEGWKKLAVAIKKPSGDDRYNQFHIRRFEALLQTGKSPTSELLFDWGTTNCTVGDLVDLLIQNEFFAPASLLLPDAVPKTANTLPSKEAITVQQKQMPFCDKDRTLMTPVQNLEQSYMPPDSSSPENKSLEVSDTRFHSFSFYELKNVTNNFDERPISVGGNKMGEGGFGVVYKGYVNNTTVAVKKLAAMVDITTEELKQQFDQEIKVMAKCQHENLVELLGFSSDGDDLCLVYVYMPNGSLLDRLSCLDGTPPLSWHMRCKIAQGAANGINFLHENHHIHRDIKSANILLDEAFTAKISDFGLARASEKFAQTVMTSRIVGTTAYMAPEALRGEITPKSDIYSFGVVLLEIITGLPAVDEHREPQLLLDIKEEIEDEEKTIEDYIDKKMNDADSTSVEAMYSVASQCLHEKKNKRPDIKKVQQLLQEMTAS
Assay: LVL THP1 HTRF (THP1 Homogeneous Time Resolved Fluorescence)
Assay type: cell-based
Details: THP1 cells, 18 h incubation with compound; for DC50: read-out: LVL THP1 HTRF EC50
How it was run: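 IRAK4 HTRF read-out (665/615 nm ratio, anti-IRAK4 d2 acceptor and K donor, 18 h dark incubation at room temperature) on lysates of THP-1 cells. Cells were treated 18 h at 37° C. with 20 nL compound in DMSO, in colorless RPMI with 10% FBS, with a duplicate CTG plate.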

| SMILES | LVL THP1 HTRF YMIN [%] | DC50 [nM] |
| --- | --- | --- |
| N#Cc1cnc2c(cnn2-c2cc(N[C@H]3CCC[C@@H]3O)c(-n3cc([C@H]4CC[C@H](CCN5CCN(c6ccc(C7CCC(=O)NC7=O)cc6)CC5)CC4)nn3)cn2)c1 (stereo partly drawn) [P-403] | 3.7 | 2.5 |
| N#Cc1cnc2c(cnn2-c2cc(NC3CCOCC3)c(-n3cc([C@H]4CC[C@H](CCN5CCN(c6ccc(C7CCC(=O)NC7=O)cc6)CC5)CC4)nn3)cn2)c1 (stereo partly drawn) [P-406] | 1.7 | 7.6 |
| N#Cc1cnc2c(cnn2-c2cc(NCC3CCOCC3)c(-n3cc([C@H]4CC[C@H](CCN5CCN(c6ccc(C7CCC(=O)NC7=O)cc6)CC5)CC4)nn3)cn2)c1 (stereo partly drawn) [P-407] | 5.6 | 35.8 |
| N#Cc1cnc2c(cnn2-c2cc(NCC3COC3)c(-n3cc([C@H]4CC[C@H](CCN5CCN(c6ccc(C7CCC(=O)NC7=O)cc6)CC5)CC4)nn3)cn2)c1 (stereo partly drawn) [P-408] | 7.8 | 42.6 |
| N#Cc1cnc2c(cnn2-c2cc(OC3CC3)c(-n3cc([C@H]4CC[C@H](CCN5CCN(c6ccc(C7CCC(=O)NC7=O)cc6)CC5)CC4)nn3)cn2)c1 (stereo partly drawn) [P-409] | 8.3 | 82.5 |
| N#Cc1cnc2c(cnn2-c2cc(OCC3CCOCC3)c(-n3cc([C@H]4CC[C@H](CCN5CCN(c6ccc(C7CCC(=O)NC7=O)cc6)CC5)CC4)nn3)cn2)c1 (stereo partly drawn) [P-411] | 90.4 | 1000 |
| N#Cc1cnc2c(cnn2-c2cc(NC3CCCC3)c(-n3cc([C@H]4CC[C@H](CCN5CCN(c6ccc(N7CCC(=O)NC7=O)cc6)CC5)CC4)nn3)cn2)c1 [P-412] | 15.2 | 160 |
| C[C@H](C#N)Nc1cc(-n2ncc3cc(C#N)cnc32)ncc1-n1cc([C@H]2CC[C@H](CCN3CCC(c4ccn(C5CCC(=O)NC5=O)c(=O)c4)CC3)CC2)nn1 (stereo partly drawn) [P-413] | −1.3 | 5.1 |
| C[C@H](C#N)Nc1cc(-n2ncc3cc(C#N)cnc32)ncc1-n1cc([C@H]2CC[C@H](CCN3CCN(Cc4ccc(N5CCC(=O)NC5=O)cc4)CC3)CC2)nn1 [P-422] | 39.6 | 979 |
| C[C@H](C#N)Nc1cc(-n2ncc3cc(C#N)cnc32)ncc1-n1cc([C@H]2CC[C@H](CCN3CCN(c4ccc(N5CCC(=O)NC5=O)nn4)CC3)CC2)nn1 [P-423] | 8.6 | 143 |
| C[C@H](C#N)Nc1cc(-n2ncc3cc(C#N)cnc32)ncc1C(=O)N[C@H]1CC[C@H](CCN2CCC(c3ccn(C4CCC(=O)NC4=O)c(=O)c3)CC2)CC1 (stereo partly drawn) [P-425] | 0.8 | 124 |
| C[C@H](C#N)Nc1cc(-n2ncc3cc(C#N)c(N)nc32)ncc1-n1cc([C@H]2CC[C@H](CCN3CCN(c4ccc(N5CCC(=O)NC5=O)cn4)CC3)CC2)nn1 [P-428] | −0.6 | 3.2 |
| C[C@H](C#N)Nc1cc(-n2ncc3cc(C#N)cnc32)ncc1-n1cc([C@H]2CC[C@H](CCN3CC4(CC(c5ccc(N6CCC(=O)NC6=O)c(Cl)c5)C4)C3)CC2)nn1 [P-432] | 1.8 | 1.3 |
| C[C@H](C#N)Nc1cc(-n2ncc3cc(C#N)cnc32)ncc1C(=O)N[C@H]1CC[C@H](CCN2CC3(CC(c4ccc(N5CCC(=O)NC5=O)cc4)C3)C2)CC1 [P-433] | 37.6 | 700 |
| C[C@H](C#N)Nc1cc(Nc2ncc(C#N)cc2Cl)ncc1-n1cc([C@H]2CC[C@H](CCN3CC4(CC(c5ccc(N6CCC(=O)NC6=O)cc5)C4)C3)CC2)nn1 [P-434] | 1.9 | 29.9 |
| C[C@H](C#N)Nc1cc(-n2ncc3cc(C#N)cnc32)ncc1-n1cc([C@H]2CC[C@H](CCN3CCN(c4ccc(N5CCC(=O)NC5=O)c(F)c4)[C@H](C)C3)CC2)nn1 [P-436] | −5.4 | 0.3 |
| C[C@H](C#N)Nc1cc(-n2ncc3cc(C#N)cnc32)ncc1-n1cc([C@H]2CC[C@H](CCN3CCN(c4ccc(N5CCC(=O)NC5=O)c(Cl)c4)[C@H](C)C3)CC2)nn1 [P-437] | 0.0 | 0.4 |
| C[C@H](C#N)Nc1cc(-n2ncc3cc(C#N)cnc32)ncc1-n1cc([C@H]2CC[C@H](CCN3CCN(c4ncc(N5CCC(=O)NC5=O)cn4)[C@H](C)C3)CC2)nn1 [P-438] | 2.2 | 3.4 |
| C[C@H](C#N)Nc1cc(-n2ncc3cc(C#N)cnc32)ncc1-n1cc([C@H]2CC[C@H](CCN3CCC4(C3)CN(c3ccc(N5CCC(=O)NC5=O)cc3)C4)CC2)nn1 [P-439] | 11.2 | 92.4 |
| C[C@H](C#N)Nc1cc(-n2ncc3cc(C#N)cnc32)ncc1-n1cc([C@H]2CC[C@H](CCN3CCN(c4cnc(N5CCC(=O)NC5=O)cn4)[C@H](C)C3)CC2)nn1 [P-440] | 2.9 | 53.7 |

| SMILES | LVL THP1 HTRF YMIN [%] | DC50 [nM] |
| --- | --- | --- |
| CC[C@@H]1CN(CC[C@H]2CC[C@H](c3cn(-c4cnc(-n5ncc6cc(C#N)cnc65)cc4N[C@H](C)C#N)nn3)CC2)CCN1c1ccc(N2CCC(=O)NC2=O)cc1 [P-441] | −0.1 | 2.6 |
| CC[C@H]1CN(CC[C@H]2CC[C@H](c3cn(-c4cnc(-n5ncc6cc(C#N)cnc65)cc4N[C@H](C)C#N)nn3)CC2)CCN1c1ccc(C2CCC(=O)NC2=O)cc1 (stereo partly drawn) [P-442] | −2.0 | 4.4 |
| COc1cc(N2CCN(CC[C@H]3CC[C@H](c4cn(-c5cnc(-n6ncc7cc(C#N)cnc76)cc5N[C@H](C)C#N)nn4)CC3)CC2)ccc1N1CCC(=O)NC1=O [P-443] | −0.6 | 4.5 |
| C[C@H](C#N)Nc1cc(-n2ncc3cc(C#N)cnc32)ncc1-n1cc([C@H]2CC[C@H](CCN3CC4(CC(c5ccc(N6CCC(=O)NC6=O)c(F)c5)C4)C3)CC2)nn1 [P-444] | −1.6 | 5.2 |
| CC[C@H]1CN(CC[C@H]2CC[C@H](c3cn(-c4cnc(-n5ncc6cc(C#N)cnc65)cc4N[C@H](C)C#N)nn3)CC2)CCN1c1ccc(N2CCC(=O)NC2=O)cc1 [P-445] | 4.0 | 65.8 |
| CC[C@@H]1CN(CC[C@H]2CC[C@H](c3cn(-c4cnc(-n5ncc6cc(C#N)c(N)nc65)cc4N[C@H](C)C#N)nn3)CC2)CCN1c1ccc(N2CCC(=O)NC2=O)cn1 [P-446] | −1.4 | 1.4 |
| CC[C@@H]1CN(CC[C@H]2CC[C@H](c3cn(-c4cnc(-n5ncc6cc(C#N)c(N)nc65)cc4N[C@H](C)C#N)nn3)CC2)CCN1c1ccc(N2CCC(=O)NC2=O)cc1 [P-447] | 0.8 | 0.6 |
| C[C@H](C#N)Nc1cc(-n2ncc3cc(C#N)cnc32)ncc1-n1cc([C@H]2CC[C@H](CCN3CCC4(C3)CN(c3ccc([C@@]5(C)CCC(=O)NC5=O)cc3)C4)CC2)nn1 [P-448] | 3.9 | 32.1 |
| C[C@H](C#N)Nc1cc(-n2ncc3cc(C#N)cnc32)ncc1-n1cc([C@H]2CC[C@H](CCN3CC4(CC(c5ccc(N6CCC(=O)NC6=O)cn5)C4)C3)CC2)nn1 [P-449] | 23.7 | 424 |
| CC[C@@H]1CN(CC[C@H]2CC[C@H](c3cn(-c4cnc(-n5ncc6cc(C#N)cnc65)cc4N[C@H](C)C#N)nn3)CC2)CCN1c1ccc(C2CCC(=O)NC2=O)cc1 (stereo partly drawn) [P-452] | 0.5 | 1.9 |
| C[C@H](C#N)Nc1cc(Nc2ncc(C#N)cc2Cl)ncc1-n1cc([C@H]2CC[C@H](CCN3CCN(c4ccc(N5CCC(=O)NC5=O)cn4)[C@H](C)C3)CC2)nn1 [P-455] | −5.9 | 7.8 |
| C[C@H](C#N)Nc1cc(-n2ncc3cc(C#N)cnc32)ncc1-n1cc([C@H]2CC[C@H](CCN3CC[C@@H](Oc4ccc(N5CCC(=O)NC5=O)cc4)C3)CC2)nn1 [P-458] | 15.0 | 128 |
| C[C@H](C#N)Nc1cc(-n2ncc3cc(C#N)cnc32)ncc1-n1cc([C@H]2CC[C@H](CCN3CCN(c4ccc(N5CCC(=O)NC5=O)cc4)C[C@H]3C)CC2)nn1 [P-459] | −0.5 | 2.5 |
| C[C@H](C#N)Nc1cc(-n2ncc3cc(C#N)c(N)nc32)ncc1-n1cc([C@H]2CC[C@H](CCN3CCN(c4ccc(N5CCC(=O)NC5=O)cn4)[C@H](C)C3)CC2)nn1 [P-463] | −3.4 | 0.1 |
| C[C@H](C#N)Nc1cc(-n2ncc3cc(C#N)cnc32)ncc1-n1cc([C@H]2CC[C@H](CCN3CC[C@H](Oc4ccc(N5CCC(=O)NC5=O)cc4)C3)CC2)nn1 [P-465] | 18.9 | 293 |
| C[C@H](C#N)Nc1cc(-n2ncc3cc(C#N)cnc32)ncc1-n1cc([C@H]2CC[C@H](CCN3CCN(c4ccc(N5CCC(=O)NC5=O)cc4)C[C@@H]3C)CC2)nn1 [P-468] | 2.3 | 17.2 |
| C[C@H](C#N)Nc1cc(-n2ncc3cc(C#N)cnc32)ncc1-n1cc([C@H]2CC[C@H](CCN3CCC4(c5ccc(N6CCC(=O)NC6=O)cc5)CC4C3)CC2)nn1 (stereo partly drawn) [P-471] | 7.7 | 87.9 |
| C[C@H](C#N)Nc1cc(Nc2ncc(C#N)cc2Cl)ncc1-n1cc([C@H]2CC[C@H](CCN3CC4(CC(c5ccc(N6CCC(=O)NC6=O)cn5)C4)C3)CC2)nn1 [P-473] | 15.5 | 1000 |
| C[C@H](C#N)Nc1cc(-n2ncc3cc(C#N)cnc32)ncc1C(=O)N[C@H]1CC[C@H](CCN2CC[C@H]3[C@@H]2CCN3c2ccc(N3CCC(=O)NC3=O)c(Cl)c2)CC1 [P-475] | 6.4 | 47 |

Reference: patent US20240109881A1, “Heteroaryl Compounds as Ligand Directed Degraders of IRAK4” (Bristol-Myers Squibb Company, priority 2022, published 2024)
